From ChEMBL document CHEMBL1155620, “Two new biologically active triterpene saponins from Acanthophyllum squarrosum” (J Nat Prod, 2000)
Activity calls are given as the source filed them. No cut-off for these calls is given here.

What was measured:
Mus musculus [1] = organism: Mus musculus; assay: Increase in LPS-induced proliferation in mouse B-lymphocytes at 1 ug/mL by MTS assay; assay type: functional, cell-based
[2] = Suppression of concanavalin A-induced proliferation in mouse T-lymphocytes at 1 ug/mL by MTS assay; assay type: functional
[3] = Cytotoxicity against mouse lymphocytes at 100 ug/mL by MTS assay
[4] = Cytotoxicity against mouse lymphocytes at 10 ug/mL by MTS assay
Mus musculus [5] = organism: Mus musculus; assay: Immunostimulant activity in mouse lymphocytes at 100 pg/ml to 1 ug/mL by MTS assay; assay type: functional, cell-based
Mus musculus [6] = organism: Mus musculus; assay: Increase in concanavalin A-induced proliferation in mouse T-lymphocytes at 1 ug/mL by MTS assay; assay type: functional, cell-based

Compound	Activity (Mus musculus [1])	Activity [2] [%]	Activity [3]	Activity [4]	Activity (Mus musculus [5])	Activity (Mus musculus [6])
C[C@@H]1O[C@@H](O[C@@H]2[C@@H](O)[C@H](OC(=O)[C@]34CCC(C)(C)C[C@H]3C3=CC[C@@H]5[C@@]6(C)CC[C@H](O[C@@H]7O[C@H](C(=O)O)[C@@H](O)[C@H](O[C@@H]8OC[C@@H](O)[C@H](O)[C@H]8O)[C@H]7O[C@@H]7O[C@H](CO)[C@H](O)[C@H](O)[C@H]7O)[C@@](C)(C=O)[C@@H]6CC[C@@]5(C)[C@]3(C)CC4)O[C@H](C)[C@@H]2O[C@@H]2O[C@@H](C)[C@H](O[C@@H]3OC[C@@H](O)[C@H](O[C@@H]4OC[C@@H](O)[C@H](O)[C@H]4O)[C@H]3O)[C@@H](O)[C@H]2O)[C@H](O)[C@H](O)[C@H]1O	Active	40	58%	Non-toxic	Active	
C[C@@H]1O[C@@H](O[C@H]2[C@H](O[C@H]3[C@H](OC(=O)[C@]45CCC(C)(C)C[C@H]4C4=CC[C@@H]6[C@@]7(C)CC[C@H](O[C@@H]8O[C@H](CO)[C@@H](O)[C@H](O)[C@H]8O)[C@@](C)(C=O)[C@@H]7CC[C@@]6(C)[C@]4(C)CC5)O[C@H](CO[C@@H]4O[C@H](CO)[C@@H](O)[C@H](O)[C@H]4O)[C@@H](O)[C@@H]3O)OC[C@H](O)[C@@H]2O)[C@H](O)[C@H](O)[C@H]1O	Active		Non-toxic			Active
